PubChem BioAssay (NCI)
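Test compounds were applied to cells in 96-well plates for 48 hours at 5 doses. The concentration for 50% growth inhibition is given as GI50. TGI: concentration producing complete growth inhibition.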

Key:
Assay in all cases: inhibition of tumour cell growth, NCI panel, 48 h
[1] = system: SK-MEL-28 melanoma
[2] = system: SN12C renal
[3] = system: SNB-19 CNS
[4] = system: SW-620 colon
[5] = system: SF-268 CNS
[6] = system: MCF7 breast
[7] = system: UO-31 renal
[8] = system: HCT-15 colon
[9] = system: EKVX NSCLC
[10] = system: KM12 colon
[11] = system: HOP-62 NSCLC
[12] = system: MDA-MB-231 breast
[13] = system: SK-OV-3 ovarian
[14] = system: UACC-62 melanoma
[15] = system: SK-MEL-5 melanoma
[16] = system: SR leukemia
[17] = system: SK-MEL-2 melanoma
[18] = system: K-562 leukemia
[19] = system: MDA-MB-435
[20] = system: CAKI-1 renal
[21] = system: A549 NSCLC
[22] = system: HCT-116 colon
[23] = system: MOLT-4 leukemia
[24] = system: LOX IMVI melanoma
[25] = system: HT29 colon
[26] = system: OVCAR-4 ovarian
[27] = system: U251 CNS
[28] = system: CCRF-CEM leukemia
[29] = system: 786-0 renal
[30] = system: OVCAR-5 ovarian
[31] = system: SNB-75 CNS
[32] = system: A498 renal
[33] = system: ACHN renal
[34] = system: M14 melanoma
[35] = system: UACC-257 melanoma
[36] = system: RXF 393 renal
[37] = system: HOP-92 NSCLC
[38] = system: RPMI-8226 leukemia
[39] = system: TK-10 renal
[40] = system: OVCAR-8 ovarian
[41] = system: HL-60(TB) leukemia
[42] = system: MDA-N
[43] = system: PC-3 prostate
[44] = system: IGROV1 ovarian
[45] = system: HS 578T breast
[46] = system: DU-145 prostate
[47] = system: BT-549 breast
[48] = system: NCI-H460 lung
[49] = system: COLO 205 colon
[50] = system: T-47D breast
[51] = system: NCI-H23 lung
[52] = system: HCC-2998 colon
[53] = system: OVCAR-3 ovarian
[54] = system: NCI/ADR-RES ovarian
[55] = system: SF-539 CNS
[56] = system: NCI-H522 lung
[57] = system: SF-295 CNS
[58] = system: NCI-H226 lung
[59] = system: MALME-3M melanoma

## COc1cc(/C=C2\CCC(C)C3=C2NC(=S)NC3c2cc(OC)c(OC)c(OC)c2)cc(OC)c1OC (configuration not stated)
[1]
  TGI: > 100 µM
[2]
  TGI: > 100 µM
[3]
  TGI: > 100 µM
[4]
  TGI: > 100 µM
[5]
  TGI: > 100 µM
[6]
  TGI: > 100 µM
[7]
  TGI: 66 µM
[8]
  TGI: > 100 µM
[9]
  TGI: > 100 µM
[10]
  TGI: > 100 µM
[11]
  TGI: > 100 µM
[12]
  TGI: > 100 µM
[13]
  TGI: > 100 µM
[14]
  TGI: > 100 µM
[15]
  TGI: 59 µM
[16]
  TGI: > 100 µM
[17]
  TGI: > 100 µM
[18]
  TGI: > 100 µM
[19]
  TGI: > 100 µM
[20]
  TGI: > 100 µM
[21]
  TGI: > 100 µM
[22]
  TGI: > 100 µM
[23]
  TGI: 92.4 µM
[24]
  TGI: > 100 µM
[25]
  TGI: > 100 µM
[26]
  TGI: > 100 µM
[27]
  TGI: > 100 µM
[28]
  TGI: > 100 µM
[29]
  TGI: > 100 µM
[30]
  TGI: > 100 µM
[31]
  TGI: 66.3 µM
[32]
  TGI: > 100 µM
[33]
  TGI: > 100 µM
[34]
  TGI: > 100 µM
[35]
  TGI: > 100 µM
[36]
  TGI: > 100 µM
[37]
  TGI: > 100 µM
[38]
  TGI: 68.4 µM
[39]
  TGI: > 100 µM
[40]
  TGI: > 100 µM
[41]
  TGI: 39.7 µM
[42]
  TGI: > 100 µM
[43]
  TGI: > 100 µM
[44]
  TGI: > 100 µM
[45]
  TGI: > 100 µM
[46]
  TGI: > 100 µM

## Cc1ccc(NC(=O)Cn2c(Br)nc3c2c(=O)n(C)c(=O)n3C)cc1
[47]
  GI50: 11.1 µM
  TGI: 24 µM
[1]
  GI50: 11.4 µM
  TGI: 23.5 µM
[48]
  GI50: 3.39 µM
  TGI: 11.6 µM
[2]
  GI50: 3.16 µM
  TGI: 10.8 µM
[49]
  GI50: 5.57 µM
  TGI: 19.3 µM
[50]
  GI50: 3.05 µM
  TGI: 14 µM
[3]
  GI50: 7.92 µM
  TGI: 23.7 µM
[4]
  GI50: 13.5 µM
  TGI: 33.2 µM
[5]
  GI50: 8.3 µM
  TGI: 22.8 µM
[6]
  GI50: 3.91 µM
  TGI: 18.3 µM
[7]
  GI50: 2.13 µM
  TGI: 6 µM
[8]
  GI50: 12.2 µM
  TGI: 29.3 µM
[51]
  GI50: 6.31 µM
  TGI: 22 µM
[9]
  GI50: 10.7 µM
  TGI: 25.9 µM
[10]
  GI50: 13.6 µM
  TGI: 29.9 µM
[11]
  GI50: 2.83 µM
  TGI: 9.7 µM
[12]
  GI50: 2.44 µM
  TGI: 6.42 µM
[13]
  GI50: 2.15 µM
  TGI: 4.52 µM
[14]
  GI50: 11.1 µM
  TGI: 24.2 µM
[15]
  GI50: 2.31 µM
  TGI: 5.57 µM
[16]
  GI50: 8.96 µM
  TGI: 35.5 µM
[17]
  GI50: 13.4 µM
  TGI: 27.4 µM
[18]
  GI50: 18.5 µM
  TGI: 74.5 µM
[19]
  GI50: 9.32 µM
  TGI: 21.2 µM
[20]
  GI50: 4.32 µM
  TGI: 16.3 µM
[21]
  GI50: 5.61 µM
  TGI: 24.5 µM
[22]
  GI50: 2.43 µM
  TGI: 8.02 µM
[52]
  GI50: 15.5 µM
  TGI: 28.9 µM
[23]
  GI50: 27.9 µM
  TGI: > 100 µM
[24]
  GI50: 6.27 µM
  TGI: 19.4 µM
[53]
  GI50: 2.31 µM
  TGI: 5.35 µM
[25]
  GI50: 13.8 µM
  TGI: 51.5 µM
[26]
  GI50: 2.1 µM
  TGI: 4.57 µM
[27]
  GI50: 2.26 µM
  TGI: 5.75 µM
[28]
  GI50: 17.3 µM
  TGI: 65.8 µM
[29]
  GI50: 2.32 µM
  TGI: 5.68 µM
[54]
  GI50: 9.75 µM
  TGI: 29.3 µM
[30]
  GI50: 3.69 µM
  TGI: 13.9 µM
[55]
  GI50: 1.94 µM
  TGI: 4.21 µM
[31]
  GI50: 1.43 µM
  TGI: 3.95 µM
[32]
  GI50: 2.01 µM
  TGI: 5.87 µM
[56]
  GI50: 9.27 µM
  TGI: 36.3 µM
[33]
  GI50: 2.8 µM
  TGI: 8.12 µM
[34]
  GI50: 5.98 µM
  TGI: 19.2 µM
[35]
  GI50: 13.9 µM
  TGI: 28.8 µM
[57]
  GI50: 9.84 µM
  TGI: 21.8 µM
[58]
  GI50: 2.07 µM
  TGI: 4.76 µM
[36]
  GI50: 2.29 µM
  TGI: 6.28 µM
[59]
  GI50: 2.33 µM
  TGI: 7.01 µM
[37]
  GI50: 1.9 µM
  TGI: 5.29 µM
[38]
  GI50: 3.25 µM
  TGI: 19.4 µM
[39]
  GI50: 3.2 µM
  TGI: 9.93 µM
[40]
  GI50: 4.89 µM
  TGI: 21.6 µM
[41]
  GI50: > 100 µM
  TGI: > 100 µM
[43]
  GI50: 11.5 µM
  TGI: 24.1 µM
[44]
  GI50: 5 µM
  TGI: 17.4 µM
[45]
  GI50: 3.43 µM
  TGI: 14.9 µM
[46]
  GI50: 4.64 µM
  TGI: 16.4 µM

## COC(=O)[C@@]12CCCC(=O)[C@@H]1[C@H]1CCCC[C@H]12
[47]
  TGI: > 100 µM
[1]
  TGI: > 100 µM
[48]
  TGI: > 100 µM
[2]
  TGI: > 100 µM
[49]
  TGI: > 100 µM
[3]
  TGI: > 100 µM
[4]
  TGI: > 100 µM
[5]
  TGI: > 100 µM
[6]
  TGI: > 100 µM
[7]
  TGI: > 100 µM
[8]
  TGI: > 100 µM
[51]
  TGI: > 100 µM
[9]
  TGI: > 100 µM
[10]
  TGI: > 100 µM
[11]
  TGI: > 100 µM
[12]
  TGI: > 100 µM
[13]
  TGI: > 100 µM
[14]
  TGI: > 100 µM
[15]
  TGI: > 100 µM
[16]
  TGI: > 100 µM
[17]
  TGI: > 100 µM
[18]
  TGI: > 100 µM
[19]
  TGI: > 100 µM
[20]
  TGI: > 100 µM
[21]
  TGI: > 100 µM
[22]
  TGI: > 100 µM
[52]
  TGI: > 100 µM
[23]
  TGI: > 100 µM
[24]
  TGI: > 100 µM
[53]
  TGI: > 100 µM
[25]
  TGI: > 100 µM
[26]
  TGI: > 100 µM
[27]
  TGI: > 100 µM
[28]
  TGI: > 100 µM
[29]
  TGI: > 100 µM
[54]
  TGI: > 100 µM
[30]
  TGI: > 100 µM
[55]
  TGI: > 100 µM
[31]
  TGI: > 100 µM
[56]
  TGI: > 100 µM
[33]
  TGI: > 100 µM
[34]
  TGI: > 100 µM
[35]
  TGI: > 100 µM
[57]
  TGI: > 100 µM
[58]
  TGI: > 100 µM
[36]
  TGI: > 100 µM
[59]
  TGI: > 100 µM
[37]
  TGI: > 100 µM
[38]
  TGI: > 100 µM
[39]
  TGI: > 100 µM
[40]
  TGI: > 100 µM
[42]
  TGI: > 100 µM
[43]
  TGI: > 100 µM
[44]
  TGI: > 100 µM
[46]
  TGI: > 100 µM
